Data as given in patent US11040963B2 (priority 2017, dated 2021).

What was measured:
[1] = molecular target: HA H1 A/California/07/09 (Influenza A virus (A/California/07/2009(H1N1)), UniProt C3W5X2); test: biochemical; conditions: Competition binding (AlphaLISA), pIC50 H1 A/California/07/09
[2] = molecular target: HA H5 A/Vietnam/1203/04 (Influenza A virus (A/Vietnam/1203/2004(H5N1)), UniProt Q5EP31); test: biochemical; conditions: Competition binding (AlphaLISA), pIC50 H5 A/Vietnam/1203/04
[3] = molecular target: HA H1 A/New Caledonia/20/99 (Influenza A virus (A/New Caledonia/20/1999(H1N1)), UniProt Q6WG00); test: biochemical; conditions: Competition binding (AlphaLISA), pIC50 H1 A/New Caledonia/20/99
H1N1 A/California/07/09 = test: microbe, parasite or virus in culture; format: cell-based, influenza A virus; conditions: for EC50: Influenza A virus, H1N1, MDCK, 96 h, read-out: Virus neutralization assay (VNA), pEC50 H1N1 A/California/07/09 (converted)
H5N1 A/Vietnam/1203/04 = test: microbe, parasite or virus in culture; format: cell-based, influenza A virus; conditions: 96 h, average of repeats; for EC50: Influenza A virus, H5N1, MDCK, read-out: Virus neutralization assay (VNA), pEC50 H5N1 A/Vietnam/1203/04, MDCK cells, 96 h, CPE by ATPlite (converted)
in vitro = conditions: dog, Cytotoxicity (pCC50) MDCK
[4] = test system: H1N1 A/New Caledonia/20/99; test: microbe, parasite or virus in culture; format: cell-based, influenza A virus; conditions: for EC50: Influenza A virus, H1N1, MDCK, 96 h, read-out: Virus neutralization assay (VNA), pEC50 H1N1 A/New Caledonia/20/99 (converted)

SMILES | IC50 [1] | IC50 [2] | IC50 [3] | EC50 (H1N1 A/California/07/09) | EC50 (H5N1 A/Vietnam/1203/04) | CC50 (in vitro) | EC50 [4] | Virus neutralization assay (VNA), pEC50 H1N1 A/California/07/09 (H1N1 A/California/07/09) | Virus neutralization assay (VNA), pEC50 H5N1 A/Vietnam/1203/04 (H5N1 A/Vietnam/1203/04; MDCK cells, CPE by ATPlite) | Virus neutralization assay (VNA), pEC50 H1N1 A/New Caledonia/20/99 [4]
COC(=O)C(c1ccccc1)N1CCN(C(=O)c2cccc(-c3nc4ccc(OC)cc4[nH]3)c2)CC1 (stereo not drawn) [Example 121] | 200 nM | 1580 nM | 126 nM | 3160 nM | 39800 nM | 7940 nM | 1580 nM |  |  | 
Cc1coc(C(c2ccccc2)N2CCN(C(=O)c3cc(-c4nc5cc(OC(F)(F)F)ccc5o4)ccn3)CC2)n1 (stereo not drawn) [Example 18] | 39.8 nM | 398 nM | 20 nM | 200 nM | 20000 nM | > 50100 nM | 79.4 nM |  |  | 
Cc1nnc(C(c2ccccc2)N2CCN(C(=O)c3cccc(-c4nc5cc(NS(C)(=O)=O)ccc5o4)c3)CC2)o1 (stereo not drawn) [Example 73] | 15.8 nM | 1260 nM | 25.1 nM | 794 nM | > 50100 nM | > 50100 nM | 794 nM |  |  | 
COCCNC(=O)C(c1ccccc1)N1CCN(C(=O)c2cccc(-c3nc4ccc(OC)cc4s3)c2)CC1 (stereo not drawn) [Example 97] | 100 nM | 631 nM | 79.4 nM | 1000 nM | 3980 nM | 10000 nM | 1000 nM |  |  | 
COc1ccc2nc(-c3cccc(C(=O)N4CCN(C(C(=O)NCCCN)c5ccccc5)CC4)c3)sc2c1 (stereo not drawn) [Example 55] | 63.1 nM | 631 nM | 50.1 nM | 2000 nM | 10000 nM | > 50100 nM | 398 nM |  |  | 
COc1nnc(C(c2ccccc2)N2CCN(C(=O)c3cc(-c4nc5cc(OC(F)(F)F)ccc5o4)ccn3)CC2)o1 (stereo not drawn) [Example 21] | 15.8 nM | 794 nM | 20 nM | 100 nM | 6310 nM | 12600 nM | 79.4 nM |  |  | 
Cc1nnc(C(c2ccccc2)N2CCN(C(=O)c3cccc(-c4nc5ccncc5o4)c3)CC2)o1 (stereo not drawn) [Example 102] | 200 nM | 12600 nM | 251 nM | 2000 nM | > 50100 nM | > 50100 nM | 1000 nM |  |  | 
Cc1cnc(C(c2ccccc2)N2CCN(C(=O)c3cc(-c4nc5cc(OC(F)(F)F)ccc5o4)ccn3)CC2)o1 (stereo not drawn) [Example 20] | 12.6 nM | 501 nM | 20 nM | 79.4 nM | 7940 nM | 25100 nM | 100 nM |  |  | 
COC(=O)C(c1ccccc1)N1CCN(C(=O)c2cccc(-c3ncc(C(=O)N4CCOCC4)s3)c2)CC1 (stereo not drawn) [Example 89] | 79.4 nM | 1260 nM | 79.4 nM | 1260 nM | 15800 nM | > 50100 nM | 794 nM |  |  | 
COC(=O)C(c1ccccn1)C1CCN(C(=O)c2cccc(-c3nc4ccc(OC)cc4s3)c2)CC1 (stereo not drawn) [Example 66] | 100 nM | 794 nM | 63.1 nM | 1000 nM | 12600 nM | 20000 nM | 501 nM |  |  | 
Cc1nnc([C@@H](c2ccccc2)N2CCN(C(=O)c3cc(F)cc(-c4nc5cc(C(F)(F)F)ccc5o4)c3)CC2)o1 [Example 63] | 158 nM | 15800 nM | 158 nM | 631 nM | > 50100 nM | > 50100 nM | 501 nM |  |  | 
COC(=O)C(c1ccncc1)N1CCN(C(=O)c2cccc(-c3nc4ccc(OC)cc4s3)c2)CC1 (stereo not drawn) [Example 122] | 398 nM | 2510 nM | 200 nM | 3980 nM | 12600 nM | 10000 nM | 1580 nM |  |  | 
NCc1nnc(C(c2ccccc2)N2CCN(C(=O)c3cccc(-c4nc5cc(C(F)(F)F)ccc5o4)c3)CC2)o1 (stereo not drawn) [Example 75] | 200 nM | 3980 nM | 158 nM | 1000 nM | 7940 nM | 10000 nM | 631 nM |  |  | 
COc1ccc2nc(-c3cccc(C(=O)N4CCN(C(c5ccccc5)c5nnco5)CC4)c3)sc2c1 (stereo not drawn) [Example 79] | 200 nM | 1260 nM | 79.4 nM | 1580 nM | 12600 nM | > 50100 nM | 631 nM |  |  | 
CNc1ccc2oc(-c3cccc(C(=O)N4CCN(C(c5ccccc5)c5nnc(C)o5)CC4)c3)nc2c1 (stereo not drawn) [Example 39] | 25.1 nM | 1580 nM | 31.6 nM | 316 nM | 10000 nM | 15800 nM | 200 nM |  |  | 
O=C(c1cccc(-c2nc3cc(C(F)(F)F)ccc3o2)c1)N1CCN(C(c2ccccc2)c2nnco2)CC1 (stereo not drawn) [Example 107] | 398 nM | 20000 nM | 251 nM | 3160 nM | > 50100 nM | > 50100 nM | 1000 nM |  |  | 
Cc1nnc(C(c2ccccc2)N2CCN(C(=O)c3cccc(-c4nc5cccnc5o4)c3)CC2)o1 (stereo not drawn) [Example 129] | 631 nM | 31600 nM | 501 nM | 3980 nM | > 50100 nM | > 50100 nM | 2000 nM |  |  | 
COC(=O)C(c1ccccc1)N1CCN(C(=O)c2cccc(-c3nc4ccncc4o3)c2)CC1 (stereo not drawn) [Example 43] | 31.6 nM | 1260 nM | 25.1 nM | 398 nM | 10000 nM | > 50100 nM | 251 nM |  |  | 
COC(=O)[C@@H](c1ccccc1)N1CCN(C(=O)c2cccc(-c3nc4cc(C(F)(F)F)ccc4o3)c2)[C@H](CC(N)=O)C1 [Example 67] | 50.1 nM | 3160 nM | 50.1 nM | 794 nM | 31600 nM | 39800 nM | 631 nM |  |  | 
COc1ccc2nc(-c3cccc(C(=O)N4CCN(C(C(=O)NCCN)c5ccccc5)CC4)c3)sc2c1 (stereo not drawn) [Example 93] | 79.4 nM | 631 nM | 63.1 nM | 3980 nM | 7940 nM | 15800 nM | 794 nM |  |  | 
COc1ccc2nc(-c3cccc(C(=O)N4CCN(C(C(C)=O)c5ccccc5)CC4)c3)sc2c1 (stereo not drawn) [Example 90] | 316 nM | 1000 nM | 158 nM |  |  | 31600 nM |  | 5.8 | <4.3 | 6.1
COC(=O)C(c1ccccc1)N1CCN(C(=O)c2cccc(-c3nc4cc(NC(C)=O)ccc4o3)c2)CC1 (stereo not drawn) [Example 7] | 6.31 nM | 158 nM | 3.16 nM | 25.1 nM | 1580 nM | 31600 nM | 25.1 nM |  |  | 
[2H]C([2H])([2H])c1nnc(C(c2ccccc2)N2CCN(C(=O)c3cccc(-c4nc5cc(C(F)(F)F)ccc5o4)c3)CC2)o1 (stereo not drawn) [Example 70] | 158 nM | 3980 nM | 158 nM | 501 nM | > 50100 nM | > 50100 nM | 631 nM |  |  | 
COC(=O)[C@H](c1ccccc1)N1CCN(C(=O)c2cccc(-c3nc4cc(C(F)(F)F)ccc4o3)c2)[C@@H](C(N)=O)C1 [Example 62] | 100 nM | 3160 nM | 100 nM | 631 nM | 20000 nM | 39800 nM | 631 nM |  |  | 
Cc1nnc([C@@H](c2ccccc2)N2CCN(C(=O)c3cccc(-c4ccc5ccccc5n4)c3)CC2)o1 [Example 112] | 501 nM | 6310 nM | 398 nM | 1580 nM | > 5010 nM | 7940 nM | 1260 nM |  |  | 
COC(=O)C(c1ccccc1)N1CCN(C(=O)c2cccc(-c3nc4cc(OC(F)(F)F)ccc4o3)c2)CC1 (stereo not drawn) [Example 23] | 20 nM | 398 nM | 10 nM | 158 nM | 20000 nM | > 50100 nM | 126 nM |  |  | 
Cc1nnc([C@@H](c2ccccc2)N2CCN(C(=O)c3cccc(-c4ncc5ccccc5n4)c3)CC2)o1 [Example 38] | 50.1 nM | 2000 nM | 50.1 nM | 316 nM | 7940 nM | > 50100 nM | 200 nM |  |  | 
COC(=O)C(c1ccccc1)N1CCN(C(=O)c2cccc(-c3nc4ncccc4o3)c2)CC1 (stereo not drawn) [Example 24] | 63.1 nM | 3160 nM | 39.8 nM | 158 nM | 12600 nM | > 50100 nM | 126 nM |  |  | 
COC(=O)C(c1ccccc1)N1CCN(C(=O)c2cccc(-c3nc4cc(C(F)(F)F)ccc4o3)c2)CC1 (stereo not drawn) [Example 42] | 39.8 nM | 1000 nM | 39.8 nM | 316 nM | 15800 nM | > 50100 nM | 251 nM |  |  | 
COC(=O)[C@@H](c1ccccc1)N1CCN(C(=O)c2cccc(-c3nc4cc(C(F)(F)F)ccc4o3)c2)[C@@H](CC(N)=O)C1 [Example 58] | 39.8 nM | 1000 nM | 31.6 nM | 398 nM | 5010 nM | 39800 nM | 398 nM |  |  | 
